Measured values published in patent US20260226108A1, “FUSION POLYPEPTIDE AJ007 AND USE THEREOF” (NANJING ANJI BIOTECHNOLOGY CO, LTD., priority 2023, published 2026).
Residues, ends and D or L forms follow the SMILES beside them.

Assay: Ocular tissue distribution at equimolar concentration, eye dropping or intravitreal injection (Example 5), ELISA
Type: in vivo, C57BL/6J mice
Source text: This example provides an ocular tissue distribution comparison experiment of the polypeptide eye drops (AJ007 eye drops) in Example 2 with an equimolar concentration of the multifunctional fusion polypeptide VI (HM-1), a multifunctional fusion polypeptide VI preparation (HM-1 preparation, with a polypeptide being HM-1 and a formulation of other excipients being the same as the AJ007 eye drops), a fusion polypeptide AJ007 preparation (TAT-HM-1, with a polypeptide being AJ007 and pure water as a vehicle) after eye dropping, and the multifunctional fusion polypeptide VI (HM-1) after intravitreal injection, which is specifically described below.
Animal grouping: […] C57BL/6J mice were randomly divided into a total of 7 time point groups, including 0 h, 10 min, 1 h, 3 h, 7 h, 12 h, and 24 h, with 2 mice in each group.
Experimental process: All the mice in the eye drop administration groups were administered bilateral eye drops 1 time, with 5 μL of a corresponding drug solution dropped into each eye, while 5 μL of a corresponding drug solution was injected into both eyes in the HM-1 intravitreal injection group. At the 7 time points of 0 h, 10 min, 1 h, 3 h, 7 h, 12 h, and 24 h after the completion of administration, the mice in the corresponding groups were respectively subjected to eyeball removal and blood collection, the collected whole blood was immediately centrifuged at 6,000 rpm for 5 minutes, and then, a supernatant was sucked and stored as a sample to be tested. Additionally, 3 tissue sites, namely the vitreous body, the retina, and the RPE/choroid complex, were isolated from an eyeball under a stereomicroscope, into which PBS was added at 1:10 for dilution, followed by grinding and centrifugation at 12,000 rpm for 5 minutes. A supernatant was sucked to serve as a sample to be tested. Subsequently, the concentration of HM-1 or fusion polypeptide AJ007 in each tissue was detected by an ELISA method.

maintenance time at the RPE/choroid complex (intravitreal injection) | SMILES | maintenance time at the RPE/choroid complex (eye dropping)
shorter | C[C@H](NC(=O)CNC(=O)[C@@H](N)CCCNC(=N)N)C(=O)N[C@@H](CC(=O)O)C(=O)N[C@@H](CCCNC(=N)N)C(=O)N[C@@H](C)C(=O)NCC(=O)NCC(=O)NCC(=O)NCC(=O)N[C@@H](CCCNC(=N)N)C(=O)NCC(=O)N[C@@H](CC(=O)O)C(=O)O [HM-1, Arg-Gly-Ala-Asp-Arg-Ala-Gly-Gly-Gly-Gly-Arg-Gly-Asp] (H-RGADRAGGGGRGD-OH; N-terminus and C-terminus assumed) | very short
 | C[C@H](NC(=O)CNC(=O)[C@H](CCCNC(=N)N)NC(=O)[C@H](CCCNC(=N)N)NC(=O)[C@H](CCCNC(=N)N)NC(=O)[C@H](CCCNC(=N)N)NC(=O)[C@H](CCC(N)=O)NC(=O)[C@H](CCCNC(=N)N)NC(=O)[C@H](CCCNC(=N)N)NC(=O)[C@H](CCCCN)NC(=O)[C@H](CCCCN)NC(=O)[C@H](CCCNC(=N)N)NC(=O)CNC(=O)[C@@H](N)Cc1ccc(O)cc1)C(=O)N[C@@H](CC(=O)O)C(=O)N[C@@H](CCCNC(=N)N)C(=O)N[C@@H](C)C(=O)NCC(=O)NCC(=O)NCC(=O)NCC(=O)N[C@@H](CCCNC(=N)N)C(=O)NCC(=O)N[C@@H](CC(=O)O)C(=O)O [AJ007] (H-YGRKKRRQRRRRGADRAGGGGRGD-OH; N-terminus and C-terminus assumed) | shorter
